For 9 compounds, GI50 and TGI results are on record in PubChem BioAssay (NCI).

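Five compound concentrations were applied to cells in 96-well plates for 48 hours; endpoints were derived by simple linear interpolation of the resulting dose-response curve. At the GI50, growth is halved. The concentration for full growth arrest is given as TGI.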

Test systems include CCRF-CEM leukemia; HCT-116 colon; OVCAR-3 ovarian; RPMI-8226 leukemia; SF-295 CNS; SK-MEL-28 melanoma; SN12C renal; SNB-75 CNS; SR leukemia; HOP-92 NSCLC.
Experiment in all cases: DTP human tumour cell line panel, 48 h

As usually defined, the GI50 is the concentration that inhibits growth by half. As a reminder, the TGI is the concentration giving total growth inhibition. Read a low TGI as more potent growth arrest. Consider `COc1cc(NC(C)CCCN)c2nccc(C)c2c1OC` (configuration not stated), for which the GI50 was 15.4 µM in the experiment with CCRF-CEM leukemia; 5 µM in the experiment with HCT-116 colon; 3.17 µM with OVCAR-3 ovarian; 5.67 µM in the experiment on RPMI-8226 leukemia; 17 µM in the experiment on SF-295 CNS; 14.6 µM with SK-MEL-28 melanoma. The GI50 in the experiment on SN12C renal was 11.4 µM; in the experiment on SNB-75 CNS, 14.1 µM; with SR leukemia, 20.8 µM. For the same compound, the TGI with CCRF-CEM leukemia came out at 48 µM; in the experiment on HCT-116 colon it was 18.7 µM; in the experiment with OVCAR-3 ovarian, 10.1 µM; in the experiment with RPMI-8226 leukemia it was 23.2 µM; in the experiment on SF-295 CNS, 32.5 µM; in the experiment with SK-MEL-28 melanoma, 29.6 µM. The results for the concentration for total growth inhibition (TGI) in the experiment on SN12C renal, with SNB-75 CNS and in the experiment with SR leukemia were 25.8 µM, 29.4 µM and 60.7 µM, respectively.

On to `O=C1c2ccn(CCCCNC(CO)(CO)CO)c2C(=O)c2c1c(O)c1ccccc1c2O`, for which the GI50 is 0.436 µM in the experiment with HCT-116 colon; 1.89 µM with HOP-92 NSCLC; 0.183 µM with OVCAR-3 ovarian; 1.21 µM with RPMI-8226 leukemia; 0.719 µM with SF-295 CNS; 6.44 µM with SK-MEL-28 melanoma. In addition, the GI50 with SN12C renal was 4.39 µM; with SNB-75 CNS, 11.9 µM; in the experiment on SR leukemia it was 2.42 µM. Besides, the total growth inhibition concentration (TGI) is 0.857 µM with HCT-116 colon; 19.6 µM in the experiment with HOP-92 NSCLC; 0.388 µM in the experiment with OVCAR-3 ovarian; 11 µM in the experiment with RPMI-8226 leukemia; 2.24 µM in the experiment with SF-295 CNS; greater than 43.6 µM in the experiment with SK-MEL-28 melanoma. The results for the TGI with SN12C renal, with SNB-75 CNS and with SR leukemia were 8.83 µM, 47.2 µM and 5.76 µM, respectively.

In the case of `Cc1[nH]n(-c2cccc(Cl)c2)c(=O)c1/C=C1\C=Nc2ccc(Br)cc21`, the GI50 with CCRF-CEM leukemia is 2.95 µM; in the experiment on HCT-116 colon it was 2.65 µM; in the experiment on OVCAR-3 ovarian, 1.82 µM; in the experiment on RPMI-8226 leukemia, 3.08 µM; with SF-295 CNS, 3.6 µM; with SK-MEL-28 melanoma, 19.6 µM. The GI50 in the experiment on SN12C renal was 2.88 µM; with SNB-75 CNS, 1.25 µM; in the experiment on SR leukemia, 1.88 µM. The TGI in the experiment with CCRF-CEM leukemia was 9.84 µM; in the experiment with HCT-116 colon, 7.03 µM; with OVCAR-3 ovarian it was 3.54 µM; in the experiment with RPMI-8226 leukemia, 22.6 µM; with SF-295 CNS it was 14.2 µM; with SK-MEL-28 melanoma, greater than 100 µM. Besides, the figures for the TGI in the experiment on SN12C renal, in the experiment with SNB-75 CNS and in the experiment with SR leukemia were 11.9 µM, 3.37 µM and 3.99 µM, respectively.

For the compound `O=C(CCC(=O)Nc1cccc(Cl)c1)CC(=O)c1ccc(Cl)cc1`, the TGI in the experiment on HCT-116 colon, in the experiment with HOP-92 NSCLC, in the experiment with OVCAR-3 ovarian, in the experiment with RPMI-8226 leukemia, in the experiment with SF-295 CNS and with SK-MEL-28 melanoma was greater than 100 µM throughout. Moreover, the TGI in the experiment on SN12C renal, in the experiment on SNB-75 CNS and in the experiment with SR leukemia was greater than 100 µM each time.

In the case of `O=C(Nc1cccc(Cl)c1Cl)c1cccc(NC2=C(Cl)C(=O)N(Cc3ccccc3)C2=O)c1`, the GI50 with CCRF-CEM leukemia was 14 µM; in the experiment on HCT-116 colon, 22.1 µM; in the experiment on OVCAR-3 ovarian, 16.5 µM; with RPMI-8226 leukemia, 7.96 µM; in the experiment with SF-295 CNS, 35.7 µM; in the experiment on SK-MEL-28 melanoma, greater than 100 µM. Besides, the GI50 in the experiment with SN12C renal is 30.2 µM; in the experiment on SNB-75 CNS, greater than 100 µM; in the experiment with SR leukemia, 4.16 µM. Also, the TGI is greater than 100 µM in the experiment with CCRF-CEM leukemia; greater than 100 µM in the experiment with HCT-116 colon; 77.4 µM in the experiment on OVCAR-3 ovarian; 35.1 µM in the experiment with RPMI-8226 leukemia; greater than 100 µM in the experiment on SF-295 CNS; greater than 100 µM with SK-MEL-28 melanoma. Moreover, the TGI in the experiment on SN12C renal is greater than 100 µM; with SNB-75 CNS, greater than 100 µM; with SR leukemia, 23.5 µM.

Turning to `CCOC(=O)C1=C(C)N(N)C(=S)NC1c1ccc(C)cc1` (configuration not stated), the GI50 was 49.8 µM in the experiment on CCRF-CEM leukemia; 65.3 µM with HCT-116 colon; 0.932 µM with HOP-92 NSCLC; 22.4 µM in the experiment with OVCAR-3 ovarian; 44.7 µM with RPMI-8226 leukemia; 36.9 µM with SF-295 CNS. In addition, the GI50 with SK-MEL-28 melanoma was 6.99 µM; in the experiment on SN12C renal, greater than 100 µM; in the experiment with SR leukemia, 28.3 µM. In addition, the TGI in the experiment with CCRF-CEM leukemia, in the experiment on HCT-116 colon, in the experiment with HOP-92 NSCLC, in the experiment with OVCAR-3 ovarian, in the experiment on RPMI-8226 leukemia and in the experiment with SF-295 CNS was greater than 100 µM each time. Also, the TGI with SK-MEL-28 melanoma, in the experiment on SN12C renal and in the experiment with SR leukemia was greater than 100 µM each time.

In the case of `O=C(O)c1cc(O)c2c(c1)C(C1c3cc(C(=O)O)cc(O)c3C(=O)c3c(OC4OC(CO)C(O)C(O)C4O)cccc31)c1cccc(OC3OC(CO)C(O)C(O)C3O)c1C2=O` (configuration not stated), the GI50 with CCRF-CEM leukemia, in the experiment with HCT-116 colon, in the experiment on HOP-92 NSCLC, in the experiment with OVCAR-3 ovarian, in the experiment on SF-295 CNS and in the experiment with SK-MEL-28 melanoma was greater than 100 µM throughout. In addition, the GI50 with SN12C renal, with SNB-75 CNS and in the experiment on SR leukemia was greater than 100 µM each time. Moreover, the TGI in the experiment with CCRF-CEM leukemia, in the experiment on HCT-116 colon, in the experiment with HOP-92 NSCLC, with OVCAR-3 ovarian, in the experiment with SF-295 CNS and in the experiment with SK-MEL-28 melanoma was greater than 100 µM throughout. Besides, the TGI with SN12C renal, in the experiment with SNB-75 CNS and in the experiment with SR leukemia was greater than 100 µM in each case.

In the case of `COC(COC(=O)N1CCN(C=O)CC1)C1=C(N2CC2)C(=O)C(C)=C(N2CC2)C1=O` (configuration not stated), the total growth inhibition concentration (TGI) worked out at 4.77 µM in the experiment with CCRF-CEM leukemia; 1.55 µM in the experiment with HCT-116 colon; 0.919 µM in the experiment on HOP-92 NSCLC; 2.52 µM with OVCAR-3 ovarian; 1.52 µM in the experiment on RPMI-8226 leukemia; 4.55 µM in the experiment with SF-295 CNS. Besides, the TGI is 3.33 µM with SK-MEL-28 melanoma, 1.14 µM with SN12C renal and less than 0.011 µM in the experiment with SR leukemia.

Take `O=C(CCCN1CC=C(n2c(=O)[nH]c3ccccc32)CC1)c1ccc(F)cc1`: the GI50 was 35.5 µM with CCRF-CEM leukemia; 28.5 µM in the experiment with HCT-116 colon; 45.3 µM in the experiment with HOP-92 NSCLC; 31.4 µM in the experiment with OVCAR-3 ovarian; 30.4 µM in the experiment on RPMI-8226 leukemia; 52.6 µM in the experiment with SK-MEL-28 melanoma. The results for the GI50 in the experiment with SN12C renal and with SR leukemia were 96.2 µM and 29.6 µM, respectively. The concentration for total growth inhibition (TGI) with CCRF-CEM leukemia, in the experiment on HCT-116 colon, in the experiment with HOP-92 NSCLC, with OVCAR-3 ovarian, with RPMI-8226 leukemia and in the experiment with SK-MEL-28 melanoma was greater than 100 µM throughout. Besides, the figures for the TGI in the experiment with SN12C renal and with SR leukemia were greater than 100 µM and 89.1 µM, respectively.
